According to paper PMC12223841, “Compounds Isolated from Paepalanthus spp. (Eriocaulaceae) and Their Evaluation in Antimicrobial, Cytotoxic, and Antiviral Assays” (ACS Omega, 2025):
In brackets after ≈: the same amount, converted by molar mass.

Tests used:
[1] = system: MCF-7 (human breast cancer); experiment: MTT growth-inhibition assay, MCF-7; format: cell-based; details: 72 h; for inhibition at 50 µM: MCF7, 50 μM, read-out: Inhibition percentage (growth), MCF-7
[2] = system: Escherichia coli (NEWP0022); experiment: Broth microdilution with TTC, E. coli; format: cell-based; details: 24 h, 36 °C
[3] = system: Staphylococcus aureus (NEWP0023); experiment: Broth microdilution with TTC, S. aureus; format: cell-based; details: 24 h, 36 °C
[4] = in vitro; details: hamster
[5] = system: HCT-116 (human colon cancer); experiment: MTT growth-inhibition assay, HCT-116; format: cell-based; details: 72 h; for inhibition at 50 µM: read-out: Inhibition percentage (growth), HCT 116

MIC [2] [µg/mL] | MIC [3] [µg/mL] | IC50 ([1]; MCF7, positive control, 95% confidence interval in brackets) [nM] | IC50 ([5]; positive control, 95% confidence interval in brackets) [nM] | SMILES | inhibition at 50 µM [1] [%] | viability at 10 µM [4] [%] | inhibition at 50 µM [5] [%]
≤ 0.5 | ≤ 0.5 | – | – | CNC(C)C1CCC(N)C(OC2C(N)CC(N)C(OC3OCC(C)(O)C(NC)C3O)C2O)O1 (stereo not drawn) [gentamicin, reference compound] | – | – | –
– | – | 1160 | 180 | COc1cccc2c1C(=O)c1c(O)c3c(c(O)c1C2=O)C[C@@](O)(C(=O)CO)C[C@@H]3O[C@H]1C[C@H](N)[C@H](O)[C@H](C)O1 [Doxorubicin, doxorubicin, reference compound] | – | – | –

Further lines, the compound ahead of its results:

SMILES | MIC [2] [µg/mL] | MIC [3] [µg/mL] | IC50 ([1]; MCF7, positive control, 95% confidence interval in brackets) [nM] | IC50 ([5]; positive control, 95% confidence interval in brackets) [nM] | inhibition at 50 µM [1] [%] | viability at 10 µM [4] [%] | inhibition at 50 µM [5] [%]
COc1c(O)cc2oc(-c3ccc(O)cc3)c(OC3OC(COC(=O)C=Cc4ccc(O)cc4)C(O)C(O)C3O)c(=O)c2c1O [Compound 4, 6-Methoxykaempferol-3-O-β-D-6″-(p-coumaroyl)-glycopyranoside] | ≥ 250 | ≥ 500 | – | – | 3.45 | 100 | 11.5
COc1c(O)cc2oc(-c3ccc(O)cc3)c(O[C@@H]3O[C@H](CO)[C@@H](O)[C@H](O)[C@H]3O)c(=O)c2c1O [Compound 5, 6-Methoxykaempferol-3-O-β-glucopyranoside] | ≥ 250 | ≥ 500 | – | – | – | – | –
COc1c(O)cc2oc(-c3ccc(O)cc3)c(O)c(=O)c2c1O [Compound 1, 6-Methoxykaempferol] | ≥ 250 | 250 (≈ 790 µM) | – | – | 19.2 | – | 29.2
